The values that follow come from US7855189B2, “N-phenylphosphoric acid triamides, method for the production thereof and their use as agents for regulating or inhibiting enzymatic urea hydrolysis” (SKW Stickstoffwerke Piesteritz GmbH, priority 2004, dated 2010).

The test system of this test is urease. Kind of test: Testing for urease-inhibiting effect in soil (NH3-N release from urea). It is filed as biochemical. The settings on record: 30 g soil at 40% of max water capacity, 50 mg urea. As to the method: 30 g soil set to 40% of the maximum water capacity are added with 1 ml urea solution corresponding to 50 mg urea. At the same time the active substance is applied, preferably dissolved in the urea solution. The concentration details for the individual tested active substances given in the following table relate to the quantity of carbamide nitrogen used in the test. The soil, on the surface of which the urea solution (with and without the active substance) is applied is located in an airtight sealed container into which a receiver is inserted at the same time which collects the ammonia released from the urea as ammonium. By rinsing the receiver daily and analysing the NH4—N quantities contained, the NH3—N-release from the urea is determined.
From the summation of the ammonium quantities in the receiver, the percentage inhibition of the urea hydrolysis dependently upon time is calculated and from these values the t50 value is determined mathematically.
The t50 value is understood to be the time in days since the start of the test at which the urea hydrolysis inhibition is still 50%.

Marks after values point to notes of the source that are not given here.

In the case of `Cc1cccc(NP(N)(N)=O)c1` [Compound 2, N-(3-methylphenyl)phosphoric acid triamide], the “urease inhibition t50 value (time in days at which the urea hydrolysis inhibition is still 50%)” value (conc. 0.5 % HS-N-related (in relation to urea nitrogen used)) turned out to be 11.2 days.

Consider `NP(N)(=O)Nc1ccccc1[N+](=O)[O-]` [Compound 1, N-(2-nitrophenyl)phosphoric acid triamide], for which, under “conc. 0.05 % HS-N-related (in relation to urea nitrogen used)”, the “urease inhibition t50 value (time in days at which the urea hydrolysis inhibition is still 50%)” value is on record as >25^b) d.
